Test system: upper airway collapsibility in anaesthetized, spontaneously breathing pigs
Test: pig model of obstructive sleep apnea (OSA): upper airway collapsibility under negative pressure
Assay type: in vivo, German Landrace pigs
Conditions: i.v. bolus 1.5 mg/kg then i.v. infusion 0.475 mg/kg/h for four hours
From the text: The therapeutic potential of the compounds of formula (I) according to the present invention in sleep apnea has been assessed preclinically in a pig model of obstructive sleep apnea (OSA).
Using negative pressure, it is possible to induce collapse and thus obstruction of the upper respiratory tract in anaesthetized, spontaneously breathing pigs (Wirth K. J. et al., Sleep 36(5) (2013) pp. 699-708).
German Landrace pigs are used for the model. The pigs are anaesthetized and tracheotomized. Two tracheal are inserted into the trachea, one into the rostral part and the other into the caudal part of the trachea. Using a connection piece, the rostral cannula is connected to a tube to the negative pressure device and to the distal tracheal cannula. The distal tracheal cannula is additionally connected to a tube with an open end to atmosphere via a connection piece that served for free tracheal breathing, circumventing the upper airway. By appropriate opening and clamping of those tubes breathing can be switched from nasal breathing to breathing through the caudal tracheal cannula, circumventing the upper airway, and the (isolated) upper airway can be connected to the negative pressure device, causing airflow in the inspiratory direction.
At certain points in time, the collapsibility of the upper respiratory tract is tested by having the pig breathe via the caudal cannula and applying negative pressures of −50, −100 and −150 cm water head (cm H2O) to the upper respiratory tract. This causes the upper respiratory tract to collapse, which manifests itself in an interruption of the airflow and a pressure drop in the tube system. This test is conducted prior to the administration of the test substance and at certain intervals after the administration of the test substance. An appropriately effective test substance can prevent this collapse of the respiratory tract in the inspiratory phase.
FIG. 1: Effect of i.v. bolus injection of 1.5 mg/kg followed by an i.v. infusion of 0.475 mg/kg/h for four hours of the α2-Adrenoceptor subtype C (alpha-2C) antagonists of formula (I) ((S)-1-((2,3-dihydrobenzo[b][1,4]dioxin-2-yl)methyl)-4-(3-(methoxymethyl)pyridin-2-yl)piperazine given at time point 0 min on upper airway collapsibility at different levels of negative pressure. Percentages of pigs with no collapse are given. Mean values.

[1] = all negative pressures of −50, −100 and −150 cm
[2] = time 0 min (time point of administration), mean values

COCc1cccnc1N1CCN(C[C@H]2COc3ccccc3O2)CC1 [(S)-1-((2,3-dihydrobenzo[b][1,4]dioxin-2-yl)methyl)-4-(3-(methoxymethyl)pyridin-2-yl)piperazine]
0%: Percent pigs without collaps −50 cm H2O [2] | Percent pigs without collaps −100 cm H2O [2] | Percent pigs without collaps −150 cm H2O [2]
up to five: duration of inhibition of upper airway collapsibility [1]
inhibited upper airway collapsibility: effect on upper airway collapsibility [1]
100%: Percent pigs without collaps −50 cm H2O (time 10 min) | Percent pigs without collaps −50 cm H2O (time 30 min) | Percent pigs without collaps −50 cm H2O (time 60 min) | Percent pigs without collaps −50 cm H2O (time 120 min) | Percent pigs without collaps −50 cm H2O (time 180 min) | Percent pigs without collaps −50 cm H2O (time 240 min) | Percent pigs without collaps −50 cm H2O (time 300 min) | Percent pigs without collaps −50 cm H2O (time 330 min) | Percent pigs without collaps −100 cm H2O (time 10 min) | Percent pigs without collaps −100 cm H2O (time 30 min) | Percent pigs without collaps −100 cm H2O (time 60 min) | Percent pigs without collaps −100 cm H2O (time 120 min) | Percent pigs without collaps −100 cm H2O (time 180 min) | Percent pigs without collaps −100 cm H2O (time 240 min) | Percent pigs without collaps −100 cm H2O (time 300 min) | Percent pigs without collaps −100 cm H2O (time 330 min) | Percent pigs without collaps −150 cm H2O (time 10 min) | Percent pigs without collaps −150 cm H2O (time 30 min) | Percent pigs without collaps −150 cm H2O (time 60 min) | Percent pigs without collaps −150 cm H2O (time 120 min) | Percent pigs without collaps −150 cm H2O (time 180 min) | Percent pigs without collaps −150 cm H2O (time 240 min) | Percent pigs without collaps −150 cm H2O (time 300 min) | Percent pigs without collaps −150 cm H2O (time 330 min)
